Consider 1 compound from ChEMBL document CHEMBL2016531, “Identification of NAE Inhibitors Exhibiting Potent Activity in Leukemia Cells: Exploring the Structural Determinants of NAE Specificity” (ACS Med Chem Lett, 2011).

The target in experiment [1] is Calcium/calmodulin-dependent protein kinase type II subunit beta (Homo sapiens) (UniProt Q13554). Nature of the experiment: Inhibition of CAMK2b assessed as remaining activity at 0.1 uM by radiolabeled kinase assay relative to control.
The target in experiment [2] is T1, Tyrosine-protein kinase JAK3 (Homo sapiens) (UniProt P52333).
T1 sequence (whole entry): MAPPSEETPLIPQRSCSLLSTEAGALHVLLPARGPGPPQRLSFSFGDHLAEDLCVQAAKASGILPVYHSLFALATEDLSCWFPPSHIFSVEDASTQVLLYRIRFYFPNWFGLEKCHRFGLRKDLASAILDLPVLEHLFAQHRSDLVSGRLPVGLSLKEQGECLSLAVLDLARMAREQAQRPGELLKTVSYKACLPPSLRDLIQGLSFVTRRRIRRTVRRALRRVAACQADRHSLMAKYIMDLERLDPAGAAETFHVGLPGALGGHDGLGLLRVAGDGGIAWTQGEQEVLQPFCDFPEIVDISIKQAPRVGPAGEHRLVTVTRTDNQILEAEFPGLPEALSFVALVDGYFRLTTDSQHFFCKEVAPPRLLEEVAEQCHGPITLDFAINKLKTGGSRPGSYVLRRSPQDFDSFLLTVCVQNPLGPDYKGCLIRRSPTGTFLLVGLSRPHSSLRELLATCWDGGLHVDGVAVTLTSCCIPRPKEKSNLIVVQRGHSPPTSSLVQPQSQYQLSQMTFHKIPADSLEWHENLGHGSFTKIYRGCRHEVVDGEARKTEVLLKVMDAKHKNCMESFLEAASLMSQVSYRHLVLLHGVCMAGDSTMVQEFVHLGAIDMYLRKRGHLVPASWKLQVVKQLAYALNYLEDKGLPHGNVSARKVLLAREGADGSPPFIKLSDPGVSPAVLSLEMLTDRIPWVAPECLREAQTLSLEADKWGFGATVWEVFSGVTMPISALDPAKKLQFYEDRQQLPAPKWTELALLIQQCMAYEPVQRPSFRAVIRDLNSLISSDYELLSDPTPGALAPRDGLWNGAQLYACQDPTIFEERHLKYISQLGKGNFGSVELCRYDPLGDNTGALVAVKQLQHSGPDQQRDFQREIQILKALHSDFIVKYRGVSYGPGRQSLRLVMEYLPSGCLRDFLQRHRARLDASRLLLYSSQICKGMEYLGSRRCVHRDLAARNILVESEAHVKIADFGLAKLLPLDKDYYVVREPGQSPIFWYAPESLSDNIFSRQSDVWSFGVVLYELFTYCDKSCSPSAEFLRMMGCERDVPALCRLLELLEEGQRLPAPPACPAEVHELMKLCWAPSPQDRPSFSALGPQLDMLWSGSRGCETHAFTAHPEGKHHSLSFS
The experiment in a line: Inhibition of JAK3 assessed as remaining activity at 0.1 uM by radiolabeled kinase assay relative to control.

Structures are written as SMILES.

Chain of Calcium/calmodulin-dependent protein kinase type II subunit beta (Homo sapiens) (Q13554 whole entry): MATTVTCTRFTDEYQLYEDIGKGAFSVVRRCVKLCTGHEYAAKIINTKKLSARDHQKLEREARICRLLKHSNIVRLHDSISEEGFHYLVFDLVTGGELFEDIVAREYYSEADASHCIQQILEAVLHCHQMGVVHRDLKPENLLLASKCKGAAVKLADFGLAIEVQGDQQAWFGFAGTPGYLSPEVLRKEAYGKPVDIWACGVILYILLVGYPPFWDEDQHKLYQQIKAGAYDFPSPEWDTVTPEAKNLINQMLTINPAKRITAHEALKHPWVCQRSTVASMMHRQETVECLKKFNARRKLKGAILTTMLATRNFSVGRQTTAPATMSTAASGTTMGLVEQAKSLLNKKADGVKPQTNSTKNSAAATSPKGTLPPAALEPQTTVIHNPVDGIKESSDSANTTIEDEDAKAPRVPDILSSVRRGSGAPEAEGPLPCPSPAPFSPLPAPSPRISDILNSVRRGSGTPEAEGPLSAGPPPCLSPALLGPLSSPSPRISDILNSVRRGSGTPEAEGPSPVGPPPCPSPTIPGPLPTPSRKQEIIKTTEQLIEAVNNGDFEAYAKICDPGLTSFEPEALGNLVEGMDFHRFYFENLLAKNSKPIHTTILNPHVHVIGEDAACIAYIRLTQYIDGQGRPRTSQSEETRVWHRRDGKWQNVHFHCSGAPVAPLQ

With `CCCCCCNc1ncnc2c1ncn2[C@@H]1O[C@H](COS(N)(=O)=O)[C@@H](O)[C@H]1O`, the results for the Activity in experiment [1] and in experiment [2] were 101% and 94%, respectively.
